{"source": "patent US12239686B2", "about": "“Immune checkpoint inhibitor combinations” (LYTIX BIOPHARMA AS, priority 2014, dated 2025)", "key": {"[1]": {"system": "murine CT26WT colon carcinoma", "test": "Murine CT26WT colon carcinoma tumours in mice, intratumoural treatment", "type": "in vivo", "conditions": "for Mean tumour size (mm^2) at day 1: prior to start of treatment", "description": "The administration takes place by intra-tumoural injection of LTX-315 dissolved in sterile saline (0.9% NaCl in sterile water).\nThe mice were divided into five groups, 8 mice in each group. When the tumours reached the desired size of 20 mm^2 the treatment by intra tumoural injection was initiated. Group one was treated solely on day 1, Group two on day 1 and 2, Group three on day 1 and 3 and Group four on day 1, 2 and 3. All daily treatments were one single injection of 1.0 mg LTX-315 dissolved in 50 μl (20 mg/ml). Group five was treated with the 50 μl of vehicle for LTX-315 (Group 5).\nWeighing and physical examination were used as health controls."}, "[2]": {"system": "murine A20 B-cell lymphoma", "test": "Murine A20 B-cell lymphoma tumours in mice, intratumoural treatment", "type": "in vivo", "conditions": "for Mean tumour size (mm^2) at day 1: prior to start of treatment", "description": "The administration took place by intratumoural injection of LTX-315 dissolved in sterile saline.\nThe mice were divided into four groups (see Table 8 below for details). The intratumoural treatment was initiated when the tumours had reached the desired size of approximately 5 mm in diameter (minimum of 20 mm^2).\nThree dose levels of LTX-315, 1 mg (Group 1), 0.5 mg (Group 2) and 0.25 mg (Group 3) per injection, were investigated. The volume was 50 μl for all injections. LTX-315 was dissolved in sterile 0.9% NaCl water solution. This vehicle was used as control (Group 4). All four groups received three injections.\nA calliper was used for tumour size measurements and weighing and physical examination were used as health control."}, "A375 cells": {"system": "A375 cells", "test": "Release of ATP, luciferase assay of supernatant", "type": "cell-based, human", "conditions": "concentration-dependent", "description": "The supernatant of LTX-315-treated A375 cells was analyzed using an Enliten ATP luciferase assay kit (Promega, USA). Cells were then seeded as with an ROS assay, and treated with LTX-315 in different incubation times, from 1 to 15 minutes with two parallels, which was then conducted three times. Negative controls were untreated A375 cells exposed to serum-free media alone. Samples were diluted at 1:50 and 1:100, and analyzed with a Luminoscan RT luminometer according to the manufacturer's protocol."}, "human red blood cells": {"system": "human red blood cells", "test": "Haemolytic activity in vitro", "type": "cell-based", "conditions": "1 h, 37° C.", "description": "Freshly collected human blood was centrifuged at 1500 rpm for 10 minutes in order to isolate the red blood cells. The red blood cells (RBC) were washed three times with PBS [35 mM phosphate buffer with 150 mM NaCl, pH 7.4] by centrifugation at 1500 rpm for 10 minutes, and adjusted to 10% haematocrit with PBS. LTX-315 solutions were added to give a final concentration range of the peptide from 1200 μg/ml to 1 μg/ml and an RBC concentration of 1%. The resulting suspension was incubated with agitation for one hour at 37° C. After incubation the suspension was centrifuged at 4000 rpm for 5 minutes, and the released haemoglobin were monitored by measuring the absorbance of the supernatant at 405 nm. PBS was used as negative control and assumed to cause no haemolysis. 0.1% Triton was used as positive control and assumed to cause complete haemolysis.\nReleased haemoglobin was monitored by measuring the absorbance of the supernatant at 405 nm, and percent haemolysis was calculated by the equation: […]\nLTX-315 concentration corresponding to 50% haemolysis (ECs) was determined from a dose-response curve."}, "[3]": {"system": "murine A20 B cell lymphoma cells", "test": "Re-challenge with A20 cells in mice with complete tumour regression", "type": "in vivo", "description": "Methods: Female Balb-c mice (n=4), previously treated with LTX-315, 1 mg) or (n=9); previously treated with LTX-315 0.5 or 1 mg) were re-inoculated (s.c. in the abdominal area) with either murine A20 B cell lymphoma cells or CT26WT colon carcinoma cells (5 million) respectively 6 weeks following initial treatment with LTX-315. Tumour growth was monitored for up to 36 days following re-inoculation."}, "[4]": {"conditions": "Group 1, 1 mg intratumoural day 1"}, "[5]": {"conditions": "Group 2, 1 mg intratumoural days 1,2"}, "[6]": {"conditions": "Group 3, 1 mg intratumoural days 1,3"}, "[7]": {"conditions": "Group 4, 1 mg intratumoural days 1,2,3"}, "[8]": {"conditions": "Group 1, 1 mg intratumoural days 1,2,3"}, "[9]": {"conditions": "Group 2, 0.5 mg intratumoural days 1,2,3"}, "[10]": {"conditions": "Group 3, 0.25 mg intratumoural days 1,2,3"}}, "note": "Non-standard residues stand in square brackets, D forms with d. Residues, ends and D or L forms follow the SMILES beside them. Dip = N[C@H](C(=O)O)C(c1ccccc1)c1ccccc1"}
{"smiles": "NCCCC[C@H](NC(=O)[C@@H](NC(=O)[C@H](Cc1c[nH]c2ccccc12)NC(=O)[C@H](CCCCN)NC(=O)[C@H](CCCCN)NC(=O)[C@H](Cc1c[nH]c2ccccc12)NC(=O)[C@H](Cc1c[nH]c2ccccc12)NC(=O)[C@H](CCCCN)NC(=O)[C@@H](N)CCCCN)C(c1ccccc1)c1ccccc1)C(N)=O", "note": "[LTX-315, K-K-W-W-K-K-W-Dip-K-NH2] (H-KKWWKKW[Dip]K-NH2)", "values": [{"measurement": "Relapse of Tumour", "setting": "[1]; Group 1, 1 mg day 1", "result": 20, "unit": "%"}, {"measurement": "Free of Tumour at end of Follow-Up", "setting": "[1]; Group 1, 1 mg day 1, n=8", "result": 50, "unit": "%"}, {"measurement": "Mean tumour size (mm^2) on day 6", "setting": "[1]; [4]", "result": "4.343 ± 2.295", "unit": "mm^2"}, {"measurement": "Mean tumour size (mm^2) on day 10", "setting": "[1]; [4]", "result": "7.171 ± 4.035", "unit": "mm^2"}, {"measurement": "Mean tumour size (mm^2) on day 17", "setting": "[1]; [4]", "result": "3.712 ± 3.712", "unit": "mm^2"}, {"measurement": "Mean tumour size (mm^2) at day 1", "setting": "[1]; [4]", "result": "22.69 ± 0.4070", "unit": "mm^2"}, {"measurement": "Relapse of Tumour", "setting": "[1]; Group 2, 1 mg days 1,2", "result": 71, "unit": "%"}, {"measurement": "Free of Tumour at end of Follow-Up", "setting": "[1]; Group 2, 1 mg days 1,2, n=8", "result": 25, "unit": "%"}, {"measurement": "Mean tumour size (mm^2) on day 6", "setting": "[1]; [5]", "result": "1.458 ± 1.458", "unit": "mm^2"}, {"measurement": "Mean tumour size (mm^2) on day 10", "setting": "[1]; [5]", "result": "5.058 ± 4.014", "unit": "mm^2"}, {"measurement": "Mean tumour size (mm^2) on day 17", "setting": "[1]; [5]", "result": "6.644 ± 3.430", "unit": "mm^2"}, {"measurement": "Mean tumour size (mm^2) at day 1", "setting": "[1]; [5]", "result": "22.90 ± 1.155", "unit": "mm^2"}, {"measurement": "Relapse of Tumour", "setting": "[1]; Group 3, 1 mg days 1,3", "result": 29, "unit": "%"}, {"measurement": "Free of Tumour at end of Follow-Up", "setting": "[1]; Group 3, 1 mg days 1,3, n=8", "result": 62.5, "unit": "%"}, {"measurement": "Mean tumour size (mm^2) on day 6", "setting": "[1]; [6]", "result": "2.983 ± 2.983", "unit": "mm^2"}, {"measurement": "Mean tumour size (mm^2) on day 10", "setting": "[1]; [6]", "result": "10.85 ± 7.553", "unit": "mm^2"}, {"measurement": "Mean tumour size (mm^2) on day 17", "setting": "[1]; [6]", "result": "0.00 ± 0.00", "unit": "mm^2"}, {"measurement": "Mean tumour size (mm^2) at day 1", "setting": "[1]; [6]", "result": "21.43 ± 1.141", "unit": "mm^2"}, {"measurement": "Free of Tumour at end of Follow-Up", "setting": "[1]; Group 4, 1 mg days 1,2,3, n=8", "result": 62.5, "unit": "%"}, {"measurement": "Tumour Response: complete response", "setting": "[1]; Group 4, 1 mg days 1,2,3, n=8", "result": 100, "unit": "%"}, {"measurement": "Mean tumour size (mm^2) on day 6", "setting": "[1]; [7]", "result": "0.00 ± 0.00", "unit": "mm^2"}, {"measurement": "Mean tumour size (mm^2) on day 10", "setting": "[1]; [7]", "result": "0.00 ± 0.00", "unit": "mm^2"}, {"measurement": "Mean tumour size (mm^2) on day 17", "setting": "[1]; [7]", "result": "1.308 ± 1.308", "unit": "mm^2"}, {"measurement": "Mean tumour size (mm^2) at day 1", "setting": "[1]; [7]", "result": "24.09 ± 1.653", "unit": "mm^2"}, {"measurement": "treated animals observed with a complete tumour response", "setting": "[1]; all four LTX-315 groups together", "result": "27 of the 32"}, {"measurement": "toxic or other adverse effects", "setting": "[1]; all treated groups", "result": "No toxic or other adverse effects besides local necrotic tissue and wound formation were observed"}, {"measurement": "Mean tumour size (mm^2) on day 4", "setting": "[2]; [8]", "result": 0, "unit": "mm^2"}, {"measurement": "Mean tumour size (mm^2) on day 9", "setting": "[2]; [8]", "result": "3.70 ± 2.40", "unit": "mm^2"}, {"measurement": "Mean tumour size (mm^2) on day 14", "setting": "[2]; [8]", "result": "12.43 ± 7.87", "unit": "mm^2"}, {"measurement": "Mean tumour size (mm^2) at day 1", "setting": "[2]; [8]", "result": "25.82 ± 0.80", "unit": "mm^2"}, {"measurement": "Relapse of Tumour", "setting": "[2]; Group 1, 1 mg x3", "result": 25, "unit": "%"}, {"measurement": "Free of Tumour at end of Follow-Up", "setting": "[2]; Group 1, 1 mg x3, n=7", "result": 42.8, "unit": "%"}, {"measurement": "Tumour Response: complete response", "setting": "[2]; Group 1, 1 mg x3, n=7", "result": 57.2, "unit": "%"}, {"measurement": "Tumour Response: partial response", "setting": "[2]; Group 1, 1 mg x3, n=7", "result": 42.8, "unit": "%"}, {"measurement": "treated mice with a complete tumour response", "setting": "[2]; Group 1, optimal dose 1 mg x3", "result": "3 of 7"}, {"measurement": "Mean tumour size (mm^2) on day 4", "setting": "[2]; [9]", "result": 0, "unit": "mm^2"}, {"measurement": "Mean tumour size (mm^2) on day 9", "setting": "[2]; [9]", "result": "11.41 ± 4.69", "unit": "mm^2"}, {"measurement": "Mean tumour size (mm^2) on day 14", "setting": "[2]; [9]", "result": "61.08 ± 23.84", "unit": "mm^2"}, {"measurement": "Mean tumour size (mm^2) at day 1", "setting": "[2]; [9]", "result": "22.03 ± 0.63", "unit": "mm^2"}, {"measurement": "Relapse of Tumour", "setting": "[2]; Group 2, 0.5 mg x3", "result": 0, "unit": "%"}, {"measurement": "Free of Tumour at end of Follow-Up", "setting": "[2]; Group 2, 0.5 mg x3, n=7", "result": 28.57, "unit": "%"}, {"measurement": "Tumour Response: complete response", "setting": "[2]; Group 2, 0.5 mg x3, n=7", "result": 28.57, "unit": "%"}, {"measurement": "Mean tumour size (mm^2) on day 4", "setting": "[2]; [10]", "result": "20.60 ± 5.71", "unit": "mm^2"}, {"measurement": "Mean tumour size (mm^2) on day 9", "setting": "[2]; [10]", "result": "68.49 ± 12.74", "unit": "mm^2"}, {"measurement": "Mean tumour size (mm^2) on day 14", "setting": "[2]; [10]", "result": "69.42 ± 17.70", "unit": "mm^2"}, {"measurement": "Mean tumour size (mm^2) at day 1", "setting": "[2]; [10]", "result": "21.25 ± 0.64", "unit": "mm^2"}, {"measurement": "Tumour Response: complete response", "setting": "[2]; Group 3, 0.25 mg x3, n=9", "result": 0, "unit": "%"}, {"measurement": "adverse events or toxic effects", "setting": "[2]; all LTX-315 groups, apart from wound formation", "result": "no other adverse events or toxic effects were observed"}, {"measurement": "extracellular ATP release", "setting": "A375 cells", "result": "ATP was detected in the supernatant as early as after 5 minutes of treatment"}, {"measurement": "Mean cell death (%)", "setting": "human red blood cells; LTX-315 1 μg/ml", "result": 0.0, "unit": "%"}, {"measurement": "Mean cell death (%)", "setting": "human red blood cells; LTX-315 10 μg/ml", "result": 0.6, "unit": "%"}, {"measurement": "Mean cell death (%)", "setting": "human red blood cells; LTX-315 50 μg/ml", "result": 1.6, "unit": "%"}, {"measurement": "Mean cell death (%)", "setting": "human red blood cells; LTX-315 100 μg/ml", "result": 3.6, "unit": "%"}, {"measurement": "tumour growth after re-inoculation compared with control animals", "setting": "[3]; 4 mice previously treated with LTX-315 1 mg, re-inoculated 6 weeks later, P<0.006", "result": "Significant inhibition"}, {"measurement": "mice with complete tumour regression after re-inoculation", "setting": "[3]; of 4 re-inoculated mice", "result": 3, "unit": "mice"}, {"measurement": "animals with relapse after re-inoculation", "setting": "[3]; of 4 re-inoculated mice, 3 weeks later", "result": 1, "unit": "animal"}]}
